Laboratory results from ChEMBL document CHEMBL3430912, “GSK Tres Cantos Anti-Kinetoplastid Screening (TCAKS) Data”.

Columns and labels:
[1] = test system: Trypanosoma brucei brucei; test: GSK_TCAKS: pIC50 Trypanosoma brucei viability assay using fluorescence intensity. Assay plates (1536-well) were prepared by dispensing 25nL of compound solution per well using an Echo acoustic dispenser (Labcyte).; assay type: functional, organism-based; details: Lister 427, 2 h
[2] = test system: NIH3T3; test: GSK_TCAKS: pIC50 NIH 3T3 cell line viability assay using luminiscence. Tissue culture surface treated assay plates (1536-well) were used. […] The 100% cells survival control was determined exposing the host-cells to a 0.5% DMSO concentration, whereas the 100% toxicity control was achieved by seeding the cells in presence of Amphotericin B at 50uM. Plates were incubated for four days at 37C, 5% CO2. The assay readout was developed by addition of 5uL of CellTiter-Glo Reagent following the manufacturer's instructions. Luminiscence was measured using a ViewLux.; assay type: functional, cell-based; details: Mus musculus, NIH3T3, 96 h
[3] = test system: Trypanosoma cruzi; test: (§1) GSK_TCAKS: pIC50 Trypanosoma cruzi Imaging: Amastigotes/Cell. […] Cells were then washed once with PBS before infection. T. cruzi trypomastigotes, collected at days 5 to 8 after infection from LLC-MK2 parasite infected cultures, were allowed to swim out for 4h at 37C from a centrifuged pellet (2,500 rpm/10 min/room temperature). Trypomastigotes were then collected and counted in a CASY Cell Counter. Trypomastigotes, in supplemented DMEM, were added to H9c2 cultures in a multiplicity of infection of 1 and incubated for 18 h. Cells were washed once with PBS before incubation of the infected H9c2 monolayer with trypsin (Life-Technologies) to detach cells from the flask. Cells were counted in a CASY Cell Counter using a 150 um capillary and their density set at 5 * 10^4 cells per mL in supplemented assay DMEM. Infected H9c2 were dispensed into 384-well poly-lysine coated assay plates at 50uL per well using a Multidrop Combi dispenser. After seeding them, the plates were incubated at 37C, 5% CO2 for 72h. Cultures were then fixed and stained by addition of 50 uL of a solution containing 8% formaldehyde and 4 uM DRAQ5 DNA dye (BioStatus, UK) per well. […] Five images were collected per well for reliable statistical analysis. Automated image analysis was performed with a script developed on Acapella High Content Imaging and Analysis Software (PerkinElmer). Output: number of amastigotes per cell as infection level measurement.; assay type: functional, organism-based, Rattus norvegicus; details: H9c2, 4 h
[4] = target: Sterol 14-alpha demethylase (Trypanosoma cruzi (strain CL Brener), UniProt Q7Z1V1); test: GSK_TCAKS: pIC50 CYP51 from Trypanosoma cruzi.; assay type: functional
[5] = test system: Leishmania donovani; test: (§2) GSK_TCAKS: pIC50 Leishmania donovani Imaging: THP-1 Host Macrophages. Assay plates (384-well) were prepared by adding 250nL of compound to each well. For single shot assay, the final compound concentration was 5 uM. […] Automated image analysis was performed with a script developed on Acapella High Content Imaging and Analysis Software (PerkinElmer). Output: THP-1 cell count were reported for each well.; assay type: functional, organism-based, Homo sapiens
[6] = GSK_TCAKS: pIC50 HepG2 human cell line viability assay using luminiscence. […] Seeding density was checked to ensure that new mono-layers were not more than 50% confluent at the time of harvesting. Cell suspension was added to 500 mL of the same medium at a final density of 1.2 * 10^5 cells/mL. This cell suspension was dispensed (25 uL, 3000 cells per well) into 384-well clear-bottom plates using a Multidrop Combi dispenser. Prior to addition of the cell suspension, the screening compounds (250 nL) were pre-dispensed into the plates with an Echo liquid handler. Plates were incubated for 48 h at 37C, 5% CO2. After incubation, plates equilibrated at room temperature for 30 min before proceeding to develop the luminescent signal. The signal developer, CellTiter-Glo Reagent, was allowed to equilibrate at room temperature for 30 min and added to the plates (25uL per well) using a Multidrop Combi dispenser. Plates were left for 10 min at room temperature for stabilization and then read using a ViewLux.; assay type: toxicity, cell-based
[7] = test system: Trypanosoma cruzi; test: as §1, with “H2C9” for “Trypanosoma cruzi”, “H9c2 Host Cardiomyocytes.” for “Amastigotes/Cell.”, “Number” for “number”, “H9c2 Host Cardiomyocytes nuclei to determine drug-related cytotoxicity.” for “amastigotes per cell as infection level measurement.”; assay type: functional, organism-based, Rattus norvegicus; details: H9c2, 4 h
[8] = test system: Leishmania donovani; test: as §2, with “Amastigotes/Macrophages.” for “THP-1 Host Macrophages.”, “Average number of amastigotes per macrophage” for “THP-1”, “cell” for “cell count”; assay type: functional, organism-based, Homo sapiens; details: THP-1
[9] = test system: Trypanosoma cruzi; test: GSK_TCAKS: pIC50 Trypanosoma cruzi viability assay using beta-GAL activity. This assay was run at single shot at 5uM compound concentration per well. The biological reagents consisted of NIH-3T3 host cells and trypomastigotes parasitic cells; both cell types were set to a 3.3 * 10^5 cells/mL dilution in assay DMEM by means of a CASY cell counter device using a 60um capillary. 6 uL of the mixture were dispensed per well (about 1 * 10^3 host-cells and 1 * 10^3 parasites) with a Multidrop Combi dispenser. […] In all wells, the percentage of DMSO never exceeded 0.5%. Plates incubated for four days at 37C, 5% CO2. The substrate used for the assay fluorescence intensity (FLINT) readout was resorufin-beta-D-galactopiranoside (Sigma-Aldrich) at 5uM per well. It was diluted in PBS supplemented with the soft detergent Igepal (Fluka).; assay type: functional, organism-based, Mus musculus; details: Tulahuen, NIH3T3
[10] = test system: Trypanosoma cruzi; test: GSK_TCAKS: pIC50 Trypanosoma cruzi Imaging: Infected Cells. […] Cells were then washed once with PBS before infection. T. cruzi trypomastigotes, collected at days 5 to 8 after infection from LLC-MK2 parasite infected cultures, were allowed to swim out for 4h at 37C from a centrifuged pellet (2,500 rpm/10 min/room temperature). Trypomastigotes were then collected and counted in a CASY Cell Counter. Trypomastigotes, in supplemented DMEM, were added to H9c2 cultures in a multiplicity of infection of 1 and incubated for 18 h. Cells were washed once with PBS before incubation of the infected H9c2 monolayer with trypsin (Life-Technologies) to detach cells from the flask. Cells were counted in a CASY Cell Counter using a 150 um capillary and their density set at 5 * 10^4 cells per mL in supplemented assay DMEM. Infected H9c2 were dispensed into 384-well poly-lysine coated assay plates at 50uL per well using a Multidrop Combi dispenser. After seeding them, the plates were incubated at 37C, 5% CO2 for 72h. Cultures were then fixed and stained by addition of 50 uL of a solution containing 8% formaldehyde and 4 uM DRAQ5 DNA dye (BioStatus, UK) per well. […] Five images were collected per well for reliable statistical analysis. Automated image analysis was performed with a script developed on Acapella High Content Imaging and Analysis Software (PerkinElmer). Output: percentage of infected cells per well as a second infection marker.; assay type: functional, organism-based, Rattus norvegicus; details: H9c2, 4 h
[11] = test system: Leishmania donovani; test: GSK_TCAKS: pIC50 Leishmania donovani viability assay using fluorescence intensity. Assay plates (1536-well) were prepared by adding 30nL per well of compound. For single shot assay, the final compound concentration was 5uM. […] Briefly, eGFP LdBOB axenic amastigotes were harvested, fixed and counted in a CASY cell counter (Roche-Applied Science). A final concentration of 1.5 * 10^5 cells per well were prepared in amastigote media containing 500 U/mL penicillin/streptomycin (Invitrogen) and 6uL was dispensed to each experimental well using a Multidrop Combi dispenser (Thermo Scientific). 6uL of assay media was dispensed to control columns used as reference for 100% compound response. Following incubation for 72 h at 37C, 5% CO2, 2 uL of resazurin was added to each well at a final concentration of 0.5 mM in phosphate buffered saline (PBS) with IGEPAL (Sigma-Aldrich), 0.05% (v/v).; assay type: functional, organism-based
[12] = test system: Leishmania donovani; test: as §2, with “Infected” for “THP-1 Host”, “Percent of infected macrophage cells” for “THP-1 cell count”; assay type: functional, organism-based, Homo sapiens; details: THP-1
[13] = test system: Trypanosoma brucei brucei; test: GSK_TCAKS: pIC50 Trypanosoma brucei viability assay using luminiscence. Assay plates (1536-well) were prepared. T. brucei cultures were harvested and counted in a CASY cell counter. A parasite suspension was prepared at a final concentration of 5 * 10^4 cells/mL in complete HMI9 medium and 6uL was dispensed to all wells containing compounds using a Multidrop Combi dispenser. 6uL of HMI9 media with 0.4% DMSO were dispensed to control columns. Plates were incubated for 24 h at 37C, 5% CO2 then tempered for 10 min at room temperature. ATP content was quantified by adding 4 uL of CellTiter-Glo Reagent (Promega) according to the manufacturer's instructions. Luminescence was measured using a ViewLux.; assay type: functional, organism-based; details: Lister 427, CASY

Sterol 14-alpha demethylase, sequence (Q7Z1V1 whole entry): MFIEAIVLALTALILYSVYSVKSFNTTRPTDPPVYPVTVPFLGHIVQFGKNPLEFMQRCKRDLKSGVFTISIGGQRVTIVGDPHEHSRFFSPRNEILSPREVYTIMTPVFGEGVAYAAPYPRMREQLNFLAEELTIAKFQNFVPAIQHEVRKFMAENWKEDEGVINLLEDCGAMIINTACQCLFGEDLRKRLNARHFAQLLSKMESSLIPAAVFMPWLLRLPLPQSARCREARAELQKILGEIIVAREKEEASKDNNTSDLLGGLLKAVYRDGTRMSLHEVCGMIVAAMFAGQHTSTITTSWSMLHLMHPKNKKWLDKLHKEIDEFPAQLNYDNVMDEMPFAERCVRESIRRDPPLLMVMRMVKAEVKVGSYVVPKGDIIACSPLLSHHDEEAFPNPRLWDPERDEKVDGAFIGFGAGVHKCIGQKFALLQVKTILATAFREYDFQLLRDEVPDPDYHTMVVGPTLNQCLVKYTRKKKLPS

Structure (SMILES)	IC50 [1] [µM]	IC50 [2] [µM]	IC50 [3] [µM]	IC50 [4] [µM]	IC50 [5] [µM]	IC50 at 48 h [6] [µM]	IC50 [7] [µM]	IC50 [8] [µM]	IC50 [9] [µM]	IC50 [10] [µM]	IC50 [11] [µM]	IC50 [12] [µM]	IC50 [13] [µM]
CC1=NN(C(=O)CCn2cnc([N+](=O)[O-])n2)C(O)(C(F)(F)F)C1 (stereo not given)	> 39.8	> 50.1	1.26	> 100	> 50.1	> 100	> 50.1	> 50.1	2	6.31	> 50.1	> 50.1	> 39.8
O=C(c1cc2cc(Cl)ccc2[nH]1)N1CCCCC1c1cccnc1 (stereo not given)	25.1	39.8	0.126	0.0631	15.8	39.8	31.6	10	0.251	0.126	50.1	31.6	15.8
O=S(=O)(c1ccccc1C(F)(F)F)N1CCN(Cc2ccc(-n3ccnc3)cc2)CC1	> 39.8	> 50.1	0.2	0.1	15.8	> 100	> 50.1	25.1	0.251	0.251	6.31	> 50.1	> 39.8
CC1(Oc2cncc(Cl)c2)CCN(Cc2cc3ccccc3[nH]2)C1 (stereo not given)	> 39.8	10	1	10	31.6	31.6	10	31.6	1	1.58	> 50.1	20	> 39.8
COc1ccc(NS(=O)(=O)c2cc(NC(=O)c3ccc([N+](=O)[O-])s3)ccc2OC)cc1	0.0501	> 50.1	0.0794	1	12.6	> 100	> 50.1	0.794	0.0708	0.1	0.501	0.794	0.126
CC(=O)Nc1ccc(-c2csc(NC(=O)c3ccc([N+](=O)[O-])s3)n2)cc1	0.0251	6.31	0.1	6.31	12.6	50.1	5.01	0.794	0.126	0.126	0.398	1	0.158
N#Cc1cccc(CN2CCC(N(Cc3cccnc3)C(=O)c3cc(F)c(F)cc3F)CC2)c1	> 39.8	20	0.316	0.0501	> 50.1	> 100	> 50.1	12.6	0.398	0.398	> 50.1	> 50.1	> 39.8
N#Cc1cccc(CN2CCC(c3nc(-c4ccc(C(F)(F)F)nc4)no3)CC2)c1	> 39.8	> 50.1	2.51	> 100	> 50.1	> 100	> 50.1	> 50.1	2	2	12.6	> 50.1	> 39.8
COc1ccc(-c2nc3ccncc3c(=O)n2CCOc2ccccc2)cc1	25.1	31.6	0.398	0.0398	> 50.1	> 100	> 50.1	> 50.1	0.631	0.398	39.8	> 50.1	31.6
Cc1cccc(N2CCCN(Cc3c[nH]c4ccccc34)CC2)n1	12.6	25.1	0.316	> 100	10	12.6	2.51	10	0.316	0.398	> 50.1	10	12.6
O=C(CCCn1cnc([N+](=O)[O-])n1)Nc1cccc(Cl)c1	5.01	> 50.1	0.158	50.1	> 50.1	> 100	> 50.1	> 50.1	0.2	0.501	> 50.1	> 50.1	> 39.8
CC1=C(C(=O)Nc2ccc(Cl)cc2)C(c2ccncc2)n2ncc(C(=O)Nc3ccccc3)c2N1 (stereo not given)	3.16	31.6	0.02	0.126	12.6	79.4	> 50.1	> 50.1	0.02	0.02	0.126	> 50.1	> 39.8
O=C(NCCc1cccnc1)c1ccc(-c2ccccc2F)o1	31.6	39.8	0.2	0.0631	> 50.1	> 100	> 50.1	> 50.1	0.112	0.2	20	> 50.1	> 39.8
Cc1ccc2c(c1)-c1onc(C(=O)N3CCCCC3c3cccnc3)c1CO2 (stereo not given)	39.8	20	0.126	0.1	39.8	50.1	> 50.1	39.8	0.1	0.126	31.6	> 50.1	> 39.8
COc1ccc(-c2cc(C)no2)cc1S(=O)(=O)Nc1ccc(F)c(Cl)c1	15.8	25.1	3.98	> 100	31.6	79.4	50.1	20	1.58	3.16	25.1	25.1	25.1
